Molecular target: T1, mature p20 forms of caspase-7 (Homo sapiens, UniProt P55210)
T1 construct: p20 is mature large subunit of caspase-7 with N-terminal peptide removed; processing of the zymogen to the large and small subunits by activity of the initiator caspases; endogenous in cells
T1 sequence (P55210 24-198 limits assumed): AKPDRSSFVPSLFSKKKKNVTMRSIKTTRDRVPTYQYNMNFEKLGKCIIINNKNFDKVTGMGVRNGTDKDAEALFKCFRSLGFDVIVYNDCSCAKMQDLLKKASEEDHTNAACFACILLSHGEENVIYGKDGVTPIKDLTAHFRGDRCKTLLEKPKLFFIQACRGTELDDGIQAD
T1 sequence (P55210 207-303 limits assumed): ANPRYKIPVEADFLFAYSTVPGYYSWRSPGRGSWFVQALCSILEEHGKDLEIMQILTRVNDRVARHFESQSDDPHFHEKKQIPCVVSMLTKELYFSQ
Assay: Inhibitor specificity in hypotonic 293 extracts, mature p20 caspase-7
Type: biochemical
Conditions: inhibitor 20 μM for 5 min, then KMB01 30 min
Source text: FIGS. 6 A-E illustrate that full-length active caspase-7 has unique inhibitor specificity and is processed to mature forms by downstream executioner caspases. (A) The caspase-3 specific inhibitor causes accumulation of a catalytically active full-length form of caspase-7. Cytosolic extracts from 293 cells were activated with cytochrome c/dATP for the indicated times followed by labeling with KMB01 (left panel) and western blotting with a caspase-7 specific antibody (right panel) as in FIG. 5A. […] (B) The exact same experiment as (A) except extracts from MCF-7 cells were used in place of 293 extracts. (**) indicates forms of caspase-7 that are likely a result of the alternative transcription start site at methionine-45 (C) Quantification of the relative activity of FL-C7 in uninhibited 293 extracts (from FIG. 5A), AB06 treated 293 extracts (from (A)) and uninhibited MCF-7 extracts (from (B)) (D) Inhibitor specificity of full-length and processed forms of caspase-7. Extracts (293) were activated for 5 min with cytochrome c/dATP and then incubated with NP-capped AOMK inhibitors containing the indicated primary amino acid sequences for 5 minutes before KMB01 was added and allowed to label residual caspase active sites for 30 minutes. Samples were analyzed by SDS-PAGE followed by biotin blotting using strepavidin-HRP (left panel) or western blotting for caspase-7 (right panel). Identities of labeled caspases are indicated. (E) Specificity of AB06 after prolonged incubation times. Extracts were treated with AB06 at the indicated concentrations simultaneously with cytochrome c/dATP. At the indicated times after activation, samples were labeled with KMB01 (10 μM) for 30 minutes. Labeled caspases were resolved by SDS-PAGE analysis followed by biotin blotting using strepavidin-HRP.
An additional surprising finding from the inhibitor studies was the overall lack of inhibition of the FL-C7 species by AB06 relative to mature p20 forms of caspase-7. This was surprising since the sequence of AB06 (NP-D3VD-AOMK) differs from the KMB01 probe sequence (Bio-EVD-AOMK) only at the P3 residue. […] We therefore wanted to use inhibitors to compare the ability of different P3 elements to bind to full-length and p20 mature forms of caspase-7. […] Samples were analyzed for active site labeling and protein levels of both full-length and p20 forms of caspase-7 were monitored by western blot (FIG. 6D).
Hypotonic 293 extracts (73 μg of total protein) were activated at 37° C. for 5 minutes as described above. […] Samples (13.5 μg total protein) were analyzed by SDS-PAGE and biotin blotting as described above

Row | Compound | block of KMB01 labeling of mature p20 caspase-7
1 | Cc1cccc(C)c1C(=O)OCC(=O)[C@H](CC(=O)O)NC(=O)[C@@H](NC(=O)[C@H](Cc1ccncc1)NC(=O)[C@H](CC(=O)O)NC(=O)Cc1ccc(O)c([N+](=O)[O-])c1)C(C)C [AB06, Np-D-3-V-D-DMBA] | efficiently blocked labeling
2 | Cc1cccc(C)c1C(=O)OCC(=O)[C@H](CC(=O)O)NC(=O)[C@@H](NC(=O)[C@H](CCC(=O)O)NC(=O)[C@H](CC(=O)O)NC(=O)Cc1ccc(O)c([N+](=O)[O-])c1)C(C)C [AB09, Np-D-E- V-D-DMBA] | efficiently blocked labeling

Reference: patent US20100068150A1, “Selective Caspase Inhibitors” (The Board of Trustees of the Leland Stanford Junior …, priority 2006, published 2010)
